Assay: Acute toxicity study, single intravenous dose (non-GLP)
Assay type: in vivo, Sprague-Dawley rats
Settings: for PT / Phosphate / Potassium / Protein (Total) / RBC / Retc. / Sodium / Triglycerides / Urea / WBC / Multifocal red petechiae on all lung lobes (incidence at necropsy) / Smaller right teste (incidence at necropsy) / Testes noted to have a soft consistency (incidence at necropsy) / White streaks though one or both testes (incidence at necropsy) / ALP / ALT / APTT / AST / Albumin / Albumin/Globulin / Bilirubin (Total) / Calcium / Chloride / Cholesterol / Creatinine / Globulin / Glucose / HCT / HGB / MCH / MCHC / MCV / PLT: day 15; for PT / Phosphate / Potassium / Protein (Total) / RBC / Retc. / Sodium / Triglycerides / Urea / WBC / ALP / ALT / APTT / AST / Albumin / Albumin/Globulin / Bilirubin (Total) / Calcium / Chloride / Cholesterol / Creatinine / Globulin / Glucose / HCT / HGB / MCH / MCHC / MCV / PLT: mean ± SD
Description: This acute toxicity study included a satellite group for toxicokinetic assessment. The toxicity study was comprised of 12 male and 12 female rats, which were allocated into four groups of three males and three females. The toxicity of the test substance, WEHI-7326 dihydrochloride (referred to as WEHI-7326 from here), was tested at three dose concentrations of 5 mg/kg, 15 mg/kg and 30 mg/kg administered as a single dose via intravenous tail vein injection. The vehicle control, D-(+)-Glucose, was formulated at 5% w/v and administered per the above regime. On Study Day 15, all animals were terminated with blood collected for biochemistry, haematology and coagulation analysis before undergoing gross necropsy by a US board certified veterinary pathologist. The toxicokinetic satellite group comprised of 30 male rats which were allocated into four groups of three males in the vehicle control group and nine males in each of the three treatment groups. All treatment group animals were then allocated into three subgroups (A, B and C) and bled pre-dose, then 2min, 10min, 0.5h, 2h, 6h, 12h and 24h post-dose. All vehicle control group animals weren’t allocated to a specific subgroup but were bled at 10min and 12h post-dose. All TK animals were then terminated after the final blood collection. Dosing was suspended on Study Day 1 for both the Toxicity and Toxicokinetic Study animals following adverse reactions which lead to the early termination of two animals (one male treated with mid-dose WEHI-7326 from the Toxicity Study and one male treated with high-dose WEHI-7326 from the Toxicokinetic Study) approximately 5-10 minutes post-treatment. After consultation with the Sponsor, the following changes were made to the Study Design:
At the revised high dose of 20mg/kg, all male rats had to be terminated prematurely also due to reaching their body weight loss endpoint of >10% loss. […] Significant findings in clinical pathology outcomes were considered incidental and unrelated to test article treatment. The majority of macroscopic findings at necropsy were also considered to be incidental, however the findings of white streaks through the testes of male animals treated with WEHI-7326 may be related to treatment. Body weights were measured once prior to dose administration, then daily for the duration of the study and at termination. Clinical observations were performed on a daily basis.
The study followed test guideline OECD No. 420 (2001) “Acute Oral Toxicity - Fixed Dose Procedure” with the exception that the route of administration was intravenous (i.v.).

[1] = female rats, 20 mg/kg single i.v.
[2] = male rats, 15 mg/kg single i.v.
[3] = male rats, 20 mg/kg single i.v.

In the case of `COc1ccc(CNc2nc(NCc3ccc(CN)cc3)nc(NN3CC(=O)NC3=O)n2)cc1` [WEHI-7326], the PT [1] was 21.8 ± 0.8 s, the Phosphate [1] was 1.85 ± 0.15 mM and the Potassium [1] was 4.72 ± 0.20 mM. For the same compound, the “Protein (Total)” value [1] was 64.3 ± 1.2 g/L, the RBC [1] was 7.27 ± 0.15 10^12/L and the Retc. [1] was 4.75 ± 1.82%. For the same compound, the Sodium [1] was 139 ± 1 mM, the Triglycerides [1] was 0.96 ± 0.50 mM and the Urea [1] was 6.37 ± 0.39 mM. For the same compound, the WBC [1] was 7.85 ± 1.07 10^9/L, the “Body weight loss >10% (termination required) (incidence)” value (male rats, 5 mg/kg single i.v.) was 0/3 and the “Discharge from nose on study day 2 (incidence)” value (from here on “Discharge from nose”) (male rats, 5 mg/kg single i.v.) was 0/3. The “Hunched posture with half shut eyes on Study Day 3 (incidence)” value (from here on “Hunched posture with half shut eyes”) (male rats, 5 mg/kg single i.v.) was 0/3, the “Labored breathing, severely affected gait and lack of response to stimuli post-dose (termination required) (incidence)” value (from here on “Labored breathing”) (male rats, 5 mg/kg single i.v.) was 0/3 and the “Mild impairment of gait and lack of response to stimuli postdose, resolved 2 hours post treatment (incidence)” value (“Mild impairment” below) (male rats, 5 mg/kg single i.v.) was 0/3. The “No remarkable observations (incidence)” value (male rats, 5 mg/kg single i.v.) was 3/3, the “Red stained right eye on study day 2 and 3 (incidence)” value (shortened to “Red stained right eye”) (male rats, 5 mg/kg single i.v.) was 0/3 and the “Multifocal red petechiae on all lung lobes (incidence at necropsy)” value (“Multifocal red petechiae” for short) (male rats, 5 mg/kg single i.v.) was 0/3. The “Smaller right teste (incidence at necropsy)” value (“Smaller right teste” for short) (male rats, 5 mg/kg single i.v.) was 1/3, the “Testes noted to have a soft consistency (incidence at necropsy)” value (“Testes noted to have a soft consistency” below) (male rats, 5 mg/kg single i.v.) was 0/3 and the “White streaks though one or both testes (incidence at necropsy)” value (shortened to “White streaks though one or both testes”) (male rats, 5 mg/kg single i.v.) was 3/3. For the same compound, the ALP (male rats, 5 mg/kg single i.v.) was 528 ± 112 U/L, the ALT (male rats, 5 mg/kg single i.v.) was 66 ± 17 U/L and the APTT (male rats, 5 mg/kg single i.v.) was 16.8 ± 1.3 s. The AST (male rats, 5 mg/kg single i.v.) was 114 ± 16 U/L, the Albumin (male rats, 5 mg/kg single i.v.) was 36.6 ± 4.1 g/L and the Albumin/Globulin (male rats, 5 mg/kg single i.v.) was 1.4 ± 0.2 Ratio. The “Bilirubin (Total)” value (male rats, 5 mg/kg single i.v.) was 0.4 ± 0.1 µM, the Calcium (male rats, 5 mg/kg single i.v.) was 2.67 ± 0.12 mM and the Chloride (male rats, 5 mg/kg single i.v.) was 102.9 ± 5.3 mM. For the same compound, the Cholesterol (male rats, 5 mg/kg single i.v.) was 1.81 ± 0.18 mM, the Creatinine (male rats, 5 mg/kg single i.v.) was 25 ± 5 µM and the Globulin (male rats, 5 mg/kg single i.v.) was 25.3 ± 1.6 g/L. For the same compound, the Glucose (male rats, 5 mg/kg single i.v.) was 7.70 ± 0.82 mM, the HCT (male rats, 5 mg/kg single i.v.) was 0.52 ± 0.01 L/L and the HGB (male rats, 5 mg/kg single i.v.) was 151.7 ± 3.1 g/L. For the same compound, the MCH (male rats, 5 mg/kg single i.v.) was 19.70 ± 0.85 pg, the MCHC (male rats, 5 mg/kg single i.v.) was 294.0 ± 5.0 g/L and the MCV (male rats, 5 mg/kg single i.v.) was 67.2 ± 3.5 fL. For the same compound, the PLT (male rats, 5 mg/kg single i.v.) was 1025.0 ± 167.5 10^9/L, the PT (male rats, 5 mg/kg single i.v.) was 19.5 ± 0.3 s and the Phosphate (male rats, 5 mg/kg single i.v.) was 2.07 ± 0.24 mM. For the same compound, the Potassium (male rats, 5 mg/kg single i.v.) was 5.23 ± 0.33 mM, the “Protein (Total)” value (male rats, 5 mg/kg single i.v.) was 61.9 ± 5.8 g/L and the RBC (male rats, 5 mg/kg single i.v.) was 7.71 ± 0.45 10^12/L. It also gave a Retc. (male rats, 5 mg/kg single i.v.) of 4.57 ± 1.00%, a Sodium (male rats, 5 mg/kg single i.v.) of 143 ± 10 mM and a Triglycerides (male rats, 5 mg/kg single i.v.) of 1.65 ± 0.18 mM. The Urea (male rats, 5 mg/kg single i.v.) was 6.11 ± 0.96 mM, the WBC (male rats, 5 mg/kg single i.v.) was 14.83 ± 1.08 10^9/L and the “Body weight loss >10% (termination required) (incidence)” value [2] was 2/4. The “Discharge from nose” value [2] was 0/4, the “Hunched posture with half shut eyes” value [2] was 0/4 and the “Labored breathing” value [2] was 1/4. The “Mild impairment” value [2] was 0/4, the “No remarkable observations (incidence)” value [2] was 1/4 and the “Red stained right eye” value [2] was 1/4. The “Multifocal red petechiae” value [2] was 0/1, the “Smaller right teste” value [2] was 0/1 and the “Testes noted to have a soft consistency” value [2] was 1/1. For the same compound, the “White streaks though one or both testes” value [2] was 1/1, the ALP [2] was 306 ± 0 U/L and the ALT [2] was 61 ± 0 U/L. It also gave an APTT [2] of 20.2 ± 0.0 s, an AST [2] of 108 ± 0 U/L and an Albumin [2] of 32.3 ± 0 g/L. For the same compound, the Albumin/Globulin [2] was 1.3 ± 0 Ratio, the “Bilirubin (Total)” value [2] was 0.9 ± 0 µM and the Calcium [2] was 2.50 ± 0 mM. The Chloride [2] was 100.4 ± 0 mM, the Cholesterol [2] was 1.65 ± 0 mM and the Creatinine [2] was 23 ± 0 µM. For the same compound, the Globulin [2] was 25.8 ± 0 g/L, the Glucose [2] was 7.13 ± 0 mM and the HCT [2] was 0.46 ± 0.00 L/L. It also gave an HGB [2] of 138.0 ± 0.0 g/L, an MCH [2] of 18.00 ± 0.00 pg and an MCHC [2] of 297.0 ± 0.0 g/L. The MCV [2] was 60.40 ± 0.0 fL, the PLT [2] was 1075 ± 0.0 10^9/L and the PT [2] was 18.4 ± 0.0 s. The Phosphate [2] was 2.07 ± 0 mM, the Potassium [2] was 4.78 ± 0 mM and the “Protein (Total)” value [2] was 58.1 ± 0 g/L. For the same compound, the RBC [2] was 7.68 ± 0.00 10^12/L, the Retc. [2] was 2.70 ± 0.00% and the Sodium [2] was 138 ± 0 mM. For the same compound, the Triglycerides [2] was 0.97 ± 0 mM, the Urea [2] was 4.02 ± 0 mM and the WBC [2] was 10.89 ± 0.00 10^9/L. The “Body weight loss >10% (termination required) (incidence)” value [3] was 3/3, the “Discharge from nose” value [3] was 3/3 and the “Hunched posture with half shut eyes” value [3] was 3/3. For the same compound, the “Labored breathing” value [3] was 0/3, the “Mild impairment” value [3] was 3/3 and the “No remarkable observations (incidence)” value [3] was 0/3. The “Red stained right eye” value [3] was 0/3, the “Multifocal red petechiae” value [3] was 0/0 and the “Smaller right teste” value [3] was 0/0. For the same compound, the “Testes noted to have a soft consistency” value [3] was 0/0 and the “White streaks though one or both testes” value [3] was 0/0.

— publication PMC7955127, “Preclinical small molecule WEHI-7326 overcomes drug resistance and elicits response in patient-derived xenograft models of human treatment-refractory tumors” (Cell Death & Disease, 2021)
